# From the supplement of paper PMC10307832
# Columns and labels:
# Assay in all cases: relative viability (nuclei count vs DMSO), 5 days (fraction); higher = more cells survive
# Fedratinib + Trametinib = compound: Cc1cnc(Nc2ccc(OCCN3CCCC3)cc2)nc1Nc1cccc(S(=O)(=O)NC(C)(C)C)c1 [Fedratinib] + CC(=O)Nc1cccc(-n2c(=O)n(C3CC3)c(=O)c3c(Nc4ccc(I)cc4F)n(C)c(=O)c(C)c32)c1 [Trametinib] (partner 0.02 µM)
# How it was run: (§1)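 Medians of duplicate plates are given as relative viability. That measure is the nuclei count in treated wells divided by the count in vehicle wells. Counts were taken on 4× images of lung cancer cell lines in 1536-well plates, 5 days after pin-tool dosing the day after seeding with one drug alone or a fixed anchor-drug dose plus five library-drug doses (not always all listed) in √10 steps.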
# GW-2580 + Pemetrexed = compound: COC1=CC=C(C=C1)COC2=C(C=C(C=C2)CC3=CN=C(N=C3N)N)OC [GW-2580] + Nc1nc2[nH]cc(CCc3ccc(C(=O)N[C@@H](CCC(=O)O)C(=O)O)cc3)c2c(=O)[nH]1 [Pemetrexed] (partner 0.2 µM)
# How it was run: as §1
# GW-2580 + Tozasertib = compound: COC1=CC=C(C=C1)COC2=C(C=C(C=C2)CC3=CN=C(N=C3N)N)OC [GW-2580] + Cc1cc(Nc2cc(N3CCN(C)CC3)nc(Sc3ccc(NC(=O)C4CC4)cc3)n2)n[nH]1 [Tozasertib] (partner 0.1 µM)
# How it was run: as §1
# GW-2580 + Decitabine = compound: COC1=CC=C(C=C1)COC2=C(C=C(C=C2)CC3=CN=C(N=C3N)N)OC [GW-2580] + Nc1ncn([C@H]2C[C@H](O)[C@@H](CO)O2)c(=O)n1 [Decitabine] (partner 2 µM)
# How it was run: as §1
# Fedratinib + AZD7762 = compound: Cc1cnc(Nc2ccc(OCCN3CCCC3)cc2)nc1Nc1cccc(S(=O)(=O)NC(C)(C)C)c1 [Fedratinib] + NC(=O)Nc1cc(-c2cccc(F)c2)sc1C(=O)N[C@H]1CCCNC1 [AZD7762] (partner 0.2 µM)
# How it was run: as §1
Cell Line,relative viability (Fedratinib + Trametinib; first compound 0.1 µM),relative viability (Fedratinib + Trametinib; first compound 0.3162 µM),relative viability (Fedratinib + Trametinib; first compound 1 µM),relative viability (GW-2580 + Pemetrexed; first compound 0.08 µM),relative viability (GW-2580 + Pemetrexed; first compound 0.8 µM),relative viability (GW-2580 + Pemetrexed; first compound 2.53 µM),relative viability (GW-2580 + Pemetrexed; first compound 8 µM),relative viability (GW-2580 + Tozasertib; first compound 0.08 µM),relative viability (GW-2580 + Tozasertib; first compound 0.8 µM),relative viability (GW-2580 + Tozasertib; first compound 2.53 µM),relative viability (GW-2580 + Tozasertib; first compound 8 µM),relative viability (GW-2580 + Decitabine; first compound 0.08 µM),relative viability (GW-2580 + Decitabine; first compound 0.8 µM),relative viability (GW-2580 + Decitabine; first compound 2.53 µM),relative viability (GW-2580 + Decitabine; first compound 8 µM),relative viability (Fedratinib + AZD7762; first compound 0.1 µM),relative viability (Fedratinib + AZD7762; first compound 0.3162 µM),relative viability (Fedratinib + AZD7762; first compound 1 µM)
RERF-LC-KJ,0.787,0.813,0.858,0.491,0.44,0.504,0.523,0.474,0.593,0.508,0.367,0.687,0.799,0.673,0.658,0.895,0.918,0.953
SW 900,0.748,0.802,0.798,0.509,0.511,0.495,0.547,0.572,0.559,0.6,0.559,0.467,0.45,0.422,0.472,0.621,0.692,0.608
